The assay deals with T1, human platelet phospholipase A2 (Homo sapiens, UniProt P14555).
T1 construct: a preparation of human platelet phospholipase A2; from tissue; host or cells: human platelets
T1 sequence (P14555 21-144): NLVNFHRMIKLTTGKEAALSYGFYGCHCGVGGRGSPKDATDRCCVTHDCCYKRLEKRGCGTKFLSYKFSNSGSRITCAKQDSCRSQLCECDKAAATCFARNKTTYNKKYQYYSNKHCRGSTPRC
The assay can be described thus: Inhibition of human platelet phospholipase A2 (14C-oleate E. coli substrate). Type of assay: biochemical. As to conditions: for inhibition at 50 µM: read-out: Inhibition of PLA2, % Inhibition @ 50 μM; for inhibition at 10 µM: @ 10 μM (values marked *), read-out: Inhibition of PLA2, % Inhibition @ *10 μM; for IC50: pH 7.0, 37°, 60 min incubation, read-out: Inhibition of PLA2, IC50. The procedure: The activity of the compounds of the invention against phospholipase A2 is determined using a preparation of human platelet phospholipase A2 with a specific activity of 180 nmol/min/mg as the enzyme source. Polypropylene 15-ml test tubes are utilized as the reaction vessels. All drug samples are run in duplicate, with "blank" and "control" (no test compound) groups run in triplicate. […] Test compounds are dissolved in DMSO, and diluted to a projected final concentration of either 50 or 10 μM in 550 μl HEPES buffer at pH 7.0. A 1:7 dilution of human platelet PLA2 in HEPES buffer (5 μl) is added to each test tube, followed by gentle vortexing for 3 seconds. The reaction tubes containing drug, buffer, and enzyme are preincubated for 15 min at 37°, followed by the addition of 25 μl of ^14 C-oleate E. coli substrate. Details regarding this substrate may be found in a publication by S. Ghosh and R. Franson, Biochem. Cell. Biol., 70, 43 (1992), and references therein.
The tubes are immediately vortexed at moderate speed for 3 sec, followed by a 60 min incubation at 37° in a shaking water bath. The reaction is stopped by the addition of 3 ml of a 1:2 chloroform-methanol mixture. Additional water (1.5 ml) and chloroform (1.0 ml) are added, followed by vortexing. The lower phase is removed with a polypropylene transfer pipette, and transferred to a 13×100 mm polypropylene test tube. The organic solvent is evaporated with a stream of nitrogen, the residue is redissolved in 30 μl of a 9:1 chloroform-methanol mixture, and the solution is spotted on a channeled polyester-backed silica gel TLC plate, such as those available under the trade name PE SIL G available from Whatman Inc, Clifton, N.J.
The plate is developed with an 80:20:1 mixture of petroleum ether-diethyl ether-acetic acid. […] The plate is scored above the origin, cut along the score with scissors, and the reactant (origin) and product portions of each channel are put into separate scintillation vials. To each vial is added a scintillation cocktail (15 ml), preferably that sold under the trademark ECOLUME by ICN Biomedicals, Irvine Calif. The vials are shaken vigorously for 5 sec, and the radioactive ^14 C in each vial is measured with a scintillation counter, which provides the counts-per-minute (cpm) for each sample. The obtained cpm values are corrected for the "blank" values.
The percentage of phospholipid hydrolyzed is calculated by the formula:
Phospholipid converted=100×cpm products / (cpm products+cpm
The inhibition of phospholipase A2 by the test compounds is expressed as a percent inhibition relative to the control group:
% Inhibition=[…]

Structures are written as SMILES.

Take `O=C1C=C(c2ccc(CC(O)COc3ccc4ccccc4c3)cc2)C(O)O1` (racemic) [Example 51, 5-Hydroxy-4-(4-(2-hydroxy-3-(2-naphthyloxy)propyl)phenyl)-2(5H)-furanone]: the inhibition at 50 µM was 30%. Regarding `O=C1C=C(c2ccc(/C=C\c3ccccc3)cc2)C(O)O1` (single isomer, unassigned) [Example 33, (Z)-5-Hydroxy-4-(4-(2-phenylethenyl)phenyl)-2(5H)-furanone], the inhibition at 50 µM was determined as 23%. Turning to `CCCCCCCCOc1ccc(C2=CC(=O)OC2O)c(Cl)c1` (centres unmarked) [Example 2, 5-Hydroxy-4-(2-chloro-4-octyloxyphenyl)-2(5H)furanone], the inhibition at 10 µM turned out to be 69% and the IC50 worked out at 7.5 µM. With `CCCCCCCCOc1cccc(C2=CC(=O)OC2O)c1` (centres unmarked) [Example 3, 5-Hydroxy-4-(3-octyloxyphenyl)-2(5H)furanone], the inhibition at 50 µM is 39%.

Consider `CCCCCCCCOc1ccc(C2=CC(=O)OC2O)cc1Cl` (centres unmarked) [Example 4, 5-Hydroxy-4-(3-chloro-4-octyloxyphenyl)-2(5H)furanone], for which the inhibition at 10 µM was 71% and the IC50 was 5.4 µM. Turning to `CCCCCCCCOc1ccc(C2=CC(=O)OC2O)c(OC)c1` (centres unmarked) [Example 5, 5-Hydroxy-4-(2-methoxy-4-octyloxyphenyl)-2(5H)furanone], the inhibition at 10 µM is 58%.

For `CCCCCCCCOc1ccc(C2=CC(=O)OC2O)cc1OC` (centres unmarked) [Example 6, 5-Hydroxy-4-(3-methoxy-4-octyloxyphenyl)-2(5H)furanone], the inhibition at 10 µM worked out at 27%. On to `CCCCCCCCOc1ccc(C2=CC(=O)OC2O)cc1[N+](=O)[O-]` (centres unmarked) [Example 7, 5-Hydroxy-4-(3-nitro-4-octyloxyphenyl)-2(5H)furanone], for which the inhibition at 10 µM came to 67% and the IC50 came out at 9.4 µM.

In the case of `CCCCCCCCOc1ccccc1C1=CC(=O)OC1O` (centres unmarked) [Example 8, 5-Hydroxy-4-(2-octyloxyphenyl)-2(5H)furanone], the inhibition at 10 µM came to 21%. In the case of `CCCCCCCCOc1ccc(C2=CC(=O)OC2O)cc1NC(C)=O` (centres unmarked) [Example 9, 5-Hydroxy-4-(3-acetamido-4-octyloxyphenyl)-2(5H)furanone], the inhibition at 10 µM worked out at 7%. Turning to `O=C1C=C(c2ccc(OCCCc3ccccc3)cc2)C(O)O1` (centres unmarked) [Example 10, 5-Hydroxy-4-[4-(3-phenylpropyloxy)phenyl]-2(5H)furanone], the inhibition at 50 µM stood at 17%. Regarding `C=CCOc1cccc(C2=CC(=O)OC2O)c1` (centres unmarked) [Example 11, 5-Hydroxy-4-[(3-allyloxy)phenyl]-2(5H)furanone], the inhibition at 50 µM came to 0%.

Take `CCCCCCCC(=O)Nc1cccc(C2=CC(=O)OC2O)c1` (centres unmarked) [Example 20, 5-Hydroxy-4-(3-(1-oxooctylamino)phenyl)-2(5H)furanone]: the inhibition at 50 µM was 0%.

In the case of `CCCCCCCC(=O)Nc1ccc(C2=CC(=O)OC2O)cc1` (centres unmarked) [Example 21, 5-Hydroxy-4-(4-(1-oxooctylamino)phenyl)-2(5H)furanone], the inhibition at 50 µM came out at 0%. For the compound `CCCCCCCCS(=O)(=O)c1ccc(C2=CC(=O)OC2O)cc1` (centres unmarked) [Example 22, 5-Hydroxy-4-(4-octylsulfonyl)phenyl-2(5H)furanone], the inhibition at 10 µM is 49%.

Turning to `CCCCSc1ccc(C2=CC(=O)OC2O)cc1` (centres unmarked) [Example 24, 5-Hydroxy-4-(4-(butylthio)phenyl)-2(5H)furanone], the inhibition at 50 µM turned out to be 0%. Take `CCCCCCCCN(C(C)=O)c1ccc(C2=CC(=O)OC2O)cc1` (centres unmarked) [Example 25, 5-Hydroxy-4-(4-(N-acetyl-N-octylamino)phenyl)-2(5H)furanone]: the inhibition at 10 µM was 40%. Regarding `CC1=C(C/C=C(\C)CCCOc2ccc(C3=CC(=O)OC3O)cc2)C(C)(C)CCC1` (centres unmarked) [Example 26, (E)-5-Hydroxy-4-(4-(4-methyl-6-(2,6,6-trimethyl-1-cyclohexen-1-yl)-4-hexenyloxy)phenyl)-2(5H)-furanone], the inhibition at 10 µM came out at 92%. For the compound `O=C1C=C(c2ccc(C(=O)c3ccc4ccccc4c3)cc2)C(O)O1` (centres unmarked) [Example 29, 5-Hydroxy-4-(4-(2-naphthoyl)phenyl)-2(5H)-furanone], the IC50 came to 50 µM and the inhibition at 50 µM was found to be 59%. In the case of `O=C1C=C(c2ccc(C(=O)c3ccccc3F)cc2)C(O)O1` (centres unmarked) [Example 31, 5-Hydroxy-4-(4-(2-fluorobenzoyl)phenyl)-2(5H)-furanone], the inhibition at 50 µM was found to be 6%.

With `CCCCCCCC(=O)c1ccc(C2=CC(=O)OC2O)cc1` (centres unmarked) [Example 32, 5-Hydroxy-4-(4-octanoylphenyl)-2(5H)-furanone], the inhibition at 50 µM was found to be 55%. On the same count and under the same terms, for `CCCCCCCCNS(=O)(=O)c1ccc(C2=CC(=O)OC2O)cc1` (centres unmarked) [Example 45, 5-Hydroxy-4-(4-(octylaminosulfonyl)phenyl)-2(5H)-furanone] the value was 13%.

Turning to `O=C1C=C(c2ccc(OS(=O)(=O)C(F)(F)F)cc2)C(O)O1` (centres unmarked) [Example 46, 5-Hydroxy-4-(4-(trifluoromethanesulfonoxy)phenyl)-2(5H)-furanone], the inhibition at 50 µM amounted to 0%. As to `CC(C)c1cc(C2=CC(=O)OC2O)cc(C(C)C)c1O` (centres unmarked) [Example 47, 5-Hydroxy-4-(3,5-bis(1-methylethyl)-4-hydroxyphenyl)-2(5H)-furanone], the inhibition at 10 µM turned out to be 2%. `COc1ccc(CCNC(=O)c2ccc(C3=CC(=O)OC3O)cc2)cc1OC` (centres unmarked) [Example 48, 5-Hydroxy-4-(4-((2-(3,4-dimethoxyphenyl)ethyl)aminocarbonyl)phenyl)-2(5H)-furanone]: the inhibition at 50 µM worked out at 0%. Still for that read-out and setting: for `O=C1C=C(c2ccc(Cc3ccccc3)cc2)C(O)O1` (centres unmarked) [Example 49, 5-Hydroxy-4-(4-(phenylmethyl)phenyl)-2(5H)-furanone] the value was 5%. Consider `O=C1C=C(c2ccc(Oc3ccc4ccccc4c3)cc2)C(O)O1` (centres unmarked) [Example 50, 5-Hydroxy-4-(4-(2-naphthyloxy)phenyl)-2(5H)-furanone], for which the IC50 was 50 µM and the inhibition at 50 µM worked out at 52%. Regarding `O=C1C=C(c2ccc(COc3ccc4ccccc4c3)cc2)C(O)O1` (centres unmarked) [Example 52, 5-Hydroxy-4-(4-(2-naphthyloxymethyl)phenyl)-2(5H)-furanone], the IC50 amounted to 50 µM and the inhibition at 50 µM is 51%.

For `CC(C)(C)C#Cc1ccc(C2=CC(=O)OC2O)cc1` (centres unmarked) [Example 53, 5-Hydroxy-4-(4-(3,3-dimethyl-1-butynyl)phenyl)-2(5H)-furanone], the IC50 stood at 42 µM and the inhibition at 50 µM came out at 53%. Take `O=C1C=C(c2ccc(C#Cc3ccc4ccccc4c3)cc2)C(O)O1` (centres unmarked) [Example 56, 5-Hydroxy-4-(4-(2-(2-naphthyl)ethynyl)phenyl)-2(5H)-furanone]: the inhibition at 50 µM is 59%. In the case of `O=C1C=C(c2ccc(C#Cc3cccc4ccccc34)cc2)C(O)O1` (centres unmarked) [Example 57, 5-Hydroxy-4-(4-(2-(1-naphthyl)ethynyl)phenyl)-2(5H)-furanone], the IC50 turned out to be 8.4 µM and the inhibition at 50 µM came to 69%.

Regarding `O=C1C=C(c2ccc(C#Cc3ccc(C(F)(F)F)cc3)cc2)C(O)O1` (centres unmarked) [Example 58, 5-Hydroxy-4-(4-(2-(4-(trifluoromethyl)phenyl)ethynyl)phenyl)-2(5H)-furanone], the inhibition at 10 µM was 24%. On the same count and under the same terms, then `O=C1C=C(c2ccc(C#Cc3cccc([N+](=O)[O-])c3)cc2)C(O)O1` (centres unmarked) [Example 59, 5-Hydroxy-4-(4-(2-(3-nitrophenyl)ethynyl)phenyl)-2(5H)-furanone], with 6%.

Broadly, the inhibition is the percentage by which the read-out fell short of the control. Usually IC50 stands for the concentration at which inhibition is half-maximal.

The values are drawn from patent publication US5464865A, “4-aryl- and 4-arylthio-5-hydroxy-2(5H)-furanones as inhibitors of phospholipase A2” (Ortho Pharmaceutical Corporation, priority 1993, dated 1995).
